According to US10323000B2, “Indole derivatives and their use in neurodegenerative diseases” (priority 2014, dated 2019):
Where two headings read alike, the source gives them in different places.

Columns and labels:
human P2X7 receptor = human P2X7 receptor (Homo sapiens (Human), UniProt Q99572); assay: Pore permeation assay (YO PRO dye uptake); type: cell-based
[1] = target: P2X7 (IL-1β release from THP-1 cells) (Homo sapiens (Human), UniProt Q99572); assay: IL-1β release assay; type: cell-based
Sequence of P2X7 (IL-1β release from THP-1 cells) (Q99572 whole entry): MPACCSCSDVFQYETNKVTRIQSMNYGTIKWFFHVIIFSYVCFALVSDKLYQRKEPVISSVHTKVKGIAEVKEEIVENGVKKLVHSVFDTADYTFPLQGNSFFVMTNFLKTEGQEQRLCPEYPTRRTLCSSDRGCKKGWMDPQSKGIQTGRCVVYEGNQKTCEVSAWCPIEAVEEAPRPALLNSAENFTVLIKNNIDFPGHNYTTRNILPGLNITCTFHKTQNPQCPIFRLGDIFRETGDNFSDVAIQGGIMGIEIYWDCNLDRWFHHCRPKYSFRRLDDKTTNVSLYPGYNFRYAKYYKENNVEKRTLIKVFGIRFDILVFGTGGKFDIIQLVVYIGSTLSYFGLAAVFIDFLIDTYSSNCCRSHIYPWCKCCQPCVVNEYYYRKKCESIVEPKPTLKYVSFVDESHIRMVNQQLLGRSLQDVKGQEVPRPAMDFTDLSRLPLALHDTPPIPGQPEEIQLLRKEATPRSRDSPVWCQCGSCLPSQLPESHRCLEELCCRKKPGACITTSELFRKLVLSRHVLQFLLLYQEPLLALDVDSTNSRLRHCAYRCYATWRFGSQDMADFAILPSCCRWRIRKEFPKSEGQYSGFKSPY
Procedure, shortened: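 THP-1 cells were differentiated with PMA 0.5 μM and primed 4 h with LPS 10 ng/ml. They were then pre-incubated 20 min with compound at 37° C and stimulated 30 min with BzATP 0.8 mM. Mature IL-1β released into the supernatant was quantified by sandwich ELISA.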

[2] = HEK293 transfected with human P2X7, BzATP 10 uM, YO PRO dye uptake, read-out: hP2X7 IC50
[3] = THP-1 cells, LPS primed, 0.8 mM BzATP, mature IL-1β by sandwich ELISA, read-out: hTHP-1/IL-ib IC50

Sequence of human P2X7 receptor (Q99572 whole entry): as above

Row | SMILES | IC50 (human P2X7 receptor) | IC50 [1] | IC50 (human P2X7 receptor; [2]) | IC50 [1, 3]
1 | O=C(NCC1CCC(F)(F)CC1)c1cn(CCOC(F)F)c2cccc(Cl)c12 [Compound 95, 4-chloro-N-((4,4-difluorocyclohexyl)methyl)-1-(2-(difluoromethoxy)ethyl)-1H-indole-3-carboxamide] | 10 to 100 nM | 101 to 500 nM | – | –
2 | O=C(NCC1CCC(F)(F)CC1)c1cn(CCN2CCCC2=O)c2cccc(Cl)c12 [Compound 189, 4-chloro-N-((4,4-difluorocyclohexyl)methyl)-1-(2-(2-oxopyrrolidin-1-yl)ethyl)-1H-indole-3-carboxamide] | 10 to 100 nM | 101 to 500 nM | – | –
3 | O=C(NCC1CCC(F)(F)CC1)c1cn(CC2CCCCN2)c2cccc(Cl)c12 (stereo not shown) [Compound 173, 4-chloro-N-((4,4-difluorocyclohexyl)methyl)-1-(piperidin-2-ylmethyl)-1H-indole-3-carboxamide] | – | – | < 10 nM | < 10 nM
4 | O=C(NCC1(O)CCCC(F)(F)C1)c1cn(CC2CNC2)c2cccc(Cl)c12 (stereo not shown) [Compound 125] | 10 to 100 nM | 10 to 100 nM | – | –
5 | O=C(NCC1(O)CCC(F)(F)CC1)c1cn(CC(F)(F)F)c2cccc(Cl)c12 [Compound 4, 4-chloro-N-((4,4-difluoro-1-hydroxycyclohexyl)methyl)-1-(2,2,2-trifluoroethyl)-1H-indole-3-carboxamide] | 10 to 100 nM | 101 to 500 nM | – | –
6 | COCCn1cc(C(=O)NCC2(O)CCCCC2O)c2c(Cl)cccc21 (stereo not shown) [Compound 18, 4-Chloro-1-(2-methoxy-ethyl)-1H-indole-3-carboxylic acid (1,2-dihydroxy-cyclohexylmethyl)-amide] | – | – | > 1000 nM | > 1000 nM
7 | C[C@H]1CCC[C@@](O)(CNC(=O)c2cn(CC(F)(F)F)c3cccc(Cl)c23)C1 [Compound 2, 4-chloro-N-(((1S,3S)-1-hydroxy-3-methylcyclohexyl)methyl)-1-(2,2,2-trifluoroethyl)-1H-indole-3-carboxamide] | 10 to 100 nM | 10 to 100 nM | – | –
8 | O=C(NC[C@H]1CCCC(F)(F)C1)c1cn(C2COC2)c2cccc(Cl)c12 [Compound 67, 4-chloro-N—(((S)-3,3-difluorocyclohexyl)methyl)-1-(oxetan-3-yl)-1H-indole-3-carboxamide] | 10 to 100 nM | 10 to 100 nM | – | –
9 | O=C(NCC1CC(C(F)(F)F)CC(F)(F)C1)c1cn(CC2CCCO2)c2cccc(Cl)c12 (stereo not shown) [Compound 141, 4-chloro-N-((3,3-difluoro-5-(trifluoromethyl)cyclo-hexyl)methyl)-1-((tetrahydrofuran-2-yl)methyl)-1H-indole-3-carboxamide] | 10 to 100 nM | 10 to 100 nM | – | –
10 | CC(C)N1CCCC1Cn1cc(C(=O)NCC2CCC(F)(F)CC2)c2c(Cl)cccc21 (stereo not shown) [Compound 196, 4-chloro-N-((4,4-difluorocyclohexyl)methyl)-1-((1-isopropylpyrrolidin-2-yl)methyl)-1H-indole-3-carboxamide] | 10 to 100 nM | 101 to 500 nM | – | –
11 | CC(C)N1CC[C@H]1Cn1cc(C(=O)NCC2CCC(F)(F)CC2)c2c(Cl)cccc21 [Compound 191, (S)-4-chloro-N-((4,4-difluorocyclohexyl)methyl)-1-((1-isopropylazetidin-2-yl)methyl)-1H-indole-3-carboxamide] | 101 to 500 nM | – | – | > 1000 nM
12 | COCCn1cc(C(=O)NCCc2ccc(F)cc2Cl)c2c(Cl)cccc21 [Compound 34, 4-Chloro-1-(2-methoxy-ethyl)-1H-indole-3-carboxylic acid [2-(4-fluoro-2-chloro-phenyl)-ethyl]-amide] | 101 to 500 nM | 101 to 500 nM | – | –
13 | COCCn1cc(C(=O)NCC2CCC(F)(F)CC2)c2c(C(F)(F)F)cccc21 [Compound 199] | 101 to 500 nM | 101 to 500 nM | – | –
14 | O=C(NCC1CCC(F)(F)CC1)c1cn(CC2COCCN2)c2cccc(Cl)c12 (stereo not shown) [Compound 164, 4-chloro-N-((4,4-difluorocyclohexyl)methyl)-1-(morpholin-3-ylmethyl)-1H-indole-3-carboxamide] | 101 to 500 nM | 10 to 100 nM | – | –
15 | O=C(NCC1(O)CCC(F)(F)CC1)c1cn(C2CCCO2)c2cccc(Cl)c12 (stereo not shown) [Compound 98, 4-chloro-N-((4,4-difluoro-1-hydroxycyclohexyl)methyl)-1-(tetrahydrofuran-2-yl)-1H-indole-3-carboxamide] | 101 to 500 nM | 101 to 500 nM | – | –
16 | C[C@@H](NC(=O)c1cn(C2CCOC2)c2cccc(Cl)c12)C1C[C@H]2CC[C@@H]1C2 (stereo partly drawn) [Compound 109, 4-Chloro-1-(tetrahydro-furan-3-yl)-1H-indole-3-carboxylic acid ((1R,4S)-1-bicyclo[2.2.1]hept-2-yl-ethyl)-amide] | 101 to 500 nM | 500 to 999 nM | – | –
17 | CC1CC(F)(F)CC(O)(CNC(=O)c2cn(CC3CCCO3)c3cccc(Cl)c23)C1 (stereo not shown) [Compound 138, 4-chloro-N-((3,3-difluoro-1-hydroxy-5-methylcyclohexyl)methyl)-1-((tetrahydrofuran-2-yl)methyl)-1H-indole-3-carboxamide] | 101 to 500 nM | 101 to 500 nM | – | –
18 | CN1CCCC1Cn1cc(C(=O)NCC2CCC(F)(F)CC2)c2c(Cl)cccc21 (stereo not shown) [Compound 170, 4-chloro-N-((4,4-difluorocyclohexyl)methyl)-1-((1-methylpyrrolidin-2-yl)methyl)-1H-indole-3-carboxamide] | 10 to 100 nM | 10 to 100 nM | – | –
19 | CN1CC[C@H]1Cn1cc(C(=O)NCC2CCC(F)(F)CC2)c2c(Cl)cccc21 [Compound 151, (S)-4-chloro-N-((4,4-difluorocyclohexyl)methyl)-1-((1-methylazetidin-2-yl)methyl)-1H-indole-3-carboxamide] | 10 to 100 nM | 10 to 100 nM | – | –
20 | CN1CC(n2cc(C(=O)NCC3CCC(F)(F)CC3)c3c(Cl)cccc32)C1 [Compound 119, 4-chloro-N-((4,4-difluorocyclohexyl)methyl)-1-(1-methylazetidin-3-yl)-1H-indole-3-carboxamide] | 101 to 500 nM | 101 to 500 nM | – | –
21 | O=C(NCC1(O)CCC(F)(F)CC1)c1cn(CCC(F)(F)F)c2cccc(Cl)c12 [Compound 12, 4-chloro-N-((4,4-difluoro-1-hydroxycyclohexyl)methyl)-1-(3,3,3-trifluoropropyl)-1H-indole-3-carboxamide] | 101 to 500 nM | 500 to 999 nM | – | –
22 | O=C(NCC1(O)CCC(F)(F)CC1)c1cn(CC2CCCCO2)c2cccc(Cl)c12 (stereo not shown) [Compound 166, 4-chloro-N-((4,4-difluoro-1-hydroxycyclohexyl)methyl)-1-((tetrahydro-2H-pyran-2-yl)methyl)-1H-indole-3-carboxamide] | 10 to 100 nM | 10 to 100 nM | – | –
23 | O=C(NCC1CCC(F)(F)CC1)c1cn(C2CN(C3CC3)C2)c2cccc(Cl)c12 [Compound 171, 4-chloro-1-(1-cyclopropylazetidin-3-yl)-N-((4,4-difluorocyclohexyl)methyl)-1H-indole-3-carboxamide] | 101 to 500 nM | 500 to 999 nM | – | –
24 | O=C(NCC1CCC(F)(F)CC1)c1cn(C2CCOC2)c2cccc(Cl)c12 (stereo not shown) [Compound 114, 4-chloro-N-((4,4-difluorocyclohexyl)methyl)-1-(tetrahydrofuran-3-yl)-1H-indole-3-carboxamide] | 10 to 100 nM | 101 to 500 nM | – | –
25 | O=C(NCC1CCC(F)(F)CC1)c1cn(CC(=O)N2CCC2)c2cccc(Cl)c12 [Compound 163] | – | 10 to 100 nM | < 10 nM | –
26 | COCCn1cc(C(=O)NCC2CCC(F)(F)CC2)c2c(Cl)cccc21 [Compound 41, 4-chloro-N-((4,4-difluorocyclohexyl)methyl)-1-(2-methoxyethyl)-1H-indole-3-carboxamide] | 10 to 100 nM | – | – | < 10 nM
